Experimental data published in PubChem BioAssay (NCI).
“And” between values parts separate entries of the source, which are not always exact repeats. Equal values may be shown once.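 The compound was tested at five concentrations on cells cultured in 96-well plates, with a 48-hour exposure period. GI50: concentration for 50% inhibition of growth. TGI denotes the concentration required for complete inhibition of growth.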

Assays:
Assay in all cases: NCI-60 cell line screen, 48 h
LOX IMVI melanoma = tested on: LOX IMVI melanoma
DU-145 prostate = tested on: DU-145 prostate
SW-620 colon = tested on: SW-620 colon
SN12C renal = tested on: SN12C renal
SF-268 CNS = tested on: SF-268 CNS
SF-295 CNS = tested on: SF-295 CNS
CCRF-CEM leukemia = tested on: CCRF-CEM leukemia
ACHN renal = tested on: ACHN renal
SNB-19 CNS = tested on: SNB-19 CNS
T-47D breast = tested on: T-47D breast
OVCAR-8 ovarian = tested on: OVCAR-8 ovarian
HOP-62 NSCLC = tested on: HOP-62 NSCLC
OVCAR-4 ovarian = tested on: OVCAR-4 ovarian
UACC-62 melanoma = tested on: UACC-62 melanoma
NCI-H460 lung = tested on: NCI-H460 lung
SK-MEL-2 melanoma = tested on: SK-MEL-2 melanoma
SF-539 CNS = tested on: SF-539 CNS
EKVX NSCLC = tested on: EKVX NSCLC
M14 melanoma = tested on: M14 melanoma
SR leukemia = tested on: SR leukemia
RXF 393 renal = tested on: RXF 393 renal
RPMI-8226 leukemia = tested on: RPMI-8226 leukemia
OVCAR-3 ovarian = tested on: OVCAR-3 ovarian
UO-31 renal = tested on: UO-31 renal
HT29 colon = tested on: HT29 colon
COLO 205 colon = tested on: COLO 205 colon
NCI-H522 lung = tested on: NCI-H522 lung
KM12 colon = tested on: KM12 colon
BT-549 breast = tested on: BT-549 breast
A498 renal = tested on: A498 renal
IGROV1 ovarian = tested on: IGROV1 ovarian
HCC-2998 colon = tested on: HCC-2998 colon
U251 CNS = tested on: U251 CNS
NCI-H226 lung = tested on: NCI-H226 lung
SK-MEL-5 melanoma = tested on: SK-MEL-5 melanoma
UACC-257 melanoma = tested on: UACC-257 melanoma
HCT-15 colon = tested on: HCT-15 colon
PC-3 prostate = tested on: PC-3 prostate
MCF7 breast = tested on: MCF7 breast
NCI/ADR-RES ovarian = tested on: NCI/ADR-RES ovarian
HS 578T breast = tested on: HS 578T breast
NCI-H23 lung = tested on: NCI-H23 lung
MALME-3M melanoma = tested on: MALME-3M melanoma
786-0 renal = tested on: 786-0 renal
SK-OV-3 ovarian = tested on: SK-OV-3 ovarian
HOP-92 NSCLC = tested on: HOP-92 NSCLC
MOLT-4 leukemia = tested on: MOLT-4 leukemia
A549 NSCLC = tested on: A549 NSCLC
HCT-116 colon = tested on: HCT-116 colon
TK-10 renal = tested on: TK-10 renal
K-562 leukemia = tested on: K-562 leukemia
HL-60(TB) leukemia = tested on: HL-60(TB) leukemia
MDA-MB-231 breast = tested on: MDA-MB-231 breast
SK-MEL-28 melanoma = tested on: SK-MEL-28 melanoma
OVCAR-5 ovarian = tested on: OVCAR-5 ovarian
MDA-MB-435 = tested on: MDA-MB-435

COC(=O)N[C@H]1C=C[C@@H]2/C=C(C)/C=C/[C@@H](C)[C@H]([C@H](C)[C@H](O)[C@@H](C)NC(C)=O)OC(=O)/C=C/C=C(C)\C=C\[C@]2(C)C1
GI50 (LOX IMVI melanoma): 2.94 nM and 4.53 nM
TGI (LOX IMVI melanoma): 11 nM and 4.75 nM
TGI (DU-145 prostate): > 45300 nM
GI50 (SW-620 colon): 8.92 nM and 4.53 nM
TGI (SW-620 colon): 16200 nM
GI50 (SN12C renal): 8.13 nM and 5.18 nM
TGI (SN12C renal): > 45300 nM
TGI (SF-268 CNS): > 45300 nM
GI50 (SF-295 CNS): 3.71 nM and 4.53 nM
GI50 (CCRF-CEM leukemia): 2580 nM
TGI (CCRF-CEM leukemia): > 45300 nM
GI50 (ACHN renal): 4.53 nM
TGI (ACHN renal): > 45300 nM
GI50 (SNB-19 CNS): 118 nM and 16.4 nM
TGI (SNB-19 CNS): > 45300 nM
GI50 (T-47D breast): 6.96 nM and 4.53 nM
TGI (T-47D breast): > 45300 nM
GI50 (OVCAR-8 ovarian): 17.9 nM and 7.45 nM
TGI (OVCAR-8 ovarian): > 45300 nM
GI50 (HOP-62 NSCLC): 70.5 nM and 27.8 nM
TGI (HOP-62 NSCLC): > 45300 nM
GI50 (OVCAR-4 ovarian): 5920 nM
TGI (OVCAR-4 ovarian): > 45300 nM
GI50 (UACC-62 melanoma): 18.9 nM and 19.6 nM
TGI (UACC-62 melanoma): 8920 nM
GI50 (NCI-H460 lung): 13.5 nM and 6.97 nM
TGI (NCI-H460 lung): > 45300 nM
GI50 (SK-MEL-2 melanoma): 7190 nM
TGI (SK-MEL-2 melanoma): 33100 nM
GI50 (SF-539 CNS): 4.13 nM and 4.53 nM
TGI (SF-539 CNS): 6550 nM
TGI (EKVX NSCLC): > 45300 nM
GI50 (M14 melanoma): 3.69 nM and < 4.53 nM
TGI (M14 melanoma): 35.8 nM and < 4.53 nM
GI50 (SR leukemia): 7 nM and 4.53 nM
TGI (SR leukemia): 13400 nM
GI50 (RXF 393 renal): 4.49 nM and 4.53 nM
TGI (RXF 393 renal): 16200 nM
GI50 (RPMI-8226 leukemia): 17.3 nM and 4.59 nM
TGI (RPMI-8226 leukemia): 21000 nM
GI50 (OVCAR-3 ovarian): 172 nM and 635 nM
TGI (OVCAR-3 ovarian): 16500 nM
GI50 (UO-31 renal): 7.47 nM and 4.53 nM
TGI (UO-31 renal): 28700 nM
GI50 (HT29 colon): 6.18 nM and 4.53 nM
TGI (HT29 colon): > 45300 nM
GI50 (COLO 205 colon): 14 nM and 11.3 nM
TGI (COLO 205 colon): 7070 nM
GI50 (NCI-H522 lung): 61.3 nM and 38.8 nM
TGI (NCI-H522 lung): 19200 nM
GI50 (KM12 colon): 9.59 nM and 13.5 nM
TGI (KM12 colon): > 45300 nM
GI50 (BT-549 breast): 18.7 nM and 12.6 nM
TGI (BT-549 breast): 42100 nM
GI50 (A498 renal): 13.2 nM and 13.5 nM
GI50 (IGROV1 ovarian): 24.8 nM and 4.53 nM
TGI (IGROV1 ovarian): > 45300 nM
TGI (HCC-2998 colon): > 45300 nM
GI50 (U251 CNS): 4.72 nM and 4.53 nM
TGI (U251 CNS): 24700 nM
GI50 (NCI-H226 lung): 28.3 nM and 5.04 nM
TGI (NCI-H226 lung): 9150 nM
GI50 (SK-MEL-5 melanoma): 3.65 nM and 4.53 nM
TGI (SK-MEL-5 melanoma): 29.1 nM and 15 nM
GI50 (UACC-257 melanoma): 29 nM and 4.53 nM
TGI (UACC-257 melanoma): > 45300 nM
GI50 (HCT-15 colon): 8.93 nM and 7.36 nM
TGI (HCT-15 colon): > 45300 nM
GI50 (PC-3 prostate): 7.85 nM and 4.53 nM
TGI (PC-3 prostate): > 45300 nM
GI50 (MCF7 breast): 8.26 nM and 4.53 nM
TGI (MCF7 breast): > 45300 nM
GI50 (NCI/ADR-RES ovarian): 28.2 nM and 16.1 nM
TGI (NCI/ADR-RES ovarian): > 45300 nM
GI50 (HS 578T breast): 29.3 nM and 16.5 nM
TGI (HS 578T breast): > 45300 nM
GI50 (NCI-H23 lung): 94.3 nM and 96.4 nM
TGI (NCI-H23 lung): > 45300 nM
GI50 (MALME-3M melanoma): 1190 nM and 261 nM
TGI (MALME-3M melanoma): 10800 nM
GI50 (786-0 renal): 16.5 nM and 7.46 nM
TGI (786-0 renal): > 45300 nM
GI50 (SK-OV-3 ovarian): 6.7 nM
GI50 (HOP-92 NSCLC): 2.11 nM and 4.53 nM
TGI (HOP-92 NSCLC): 44 nM and 26.8 nM
GI50 (MOLT-4 leukemia): 8510 nM
TGI (MOLT-4 leukemia): > 45300 nM
GI50 (A549 NSCLC): 31.2 nM and 4.53 nM
TGI (A549 NSCLC): > 45300 nM
GI50 (HCT-116 colon): 3.71 nM and 4.53 nM
TGI (HCT-116 colon): > 45300 nM
GI50 (TK-10 renal): 5120 nM and 5680 nM
TGI (TK-10 renal): > 45300 nM
GI50 (K-562 leukemia): 14.6 nM
TGI (K-562 leukemia): > 45300 nM
GI50 (HL-60(TB) leukemia): 7.22 nM and 5.48 nM
TGI (HL-60(TB) leukemia): 19600 nM
GI50 (MDA-MB-231 breast): 2.28 nM and 4.53 nM
GI50 (SK-MEL-28 melanoma): 12.1 nM and 10.2 nM
TGI (SK-MEL-28 melanoma): 13300 nM
GI50 (OVCAR-5 ovarian): 8010 nM and 6550 nM
TGI (OVCAR-5 ovarian): > 45300 nM
GI50 (MDA-MB-435): 3.74 nM and 4.53 nM
TGI (MDA-MB-435): 10600 nM
